Results taken from patent US20260199273A1, “Compounds for the Treatment of Neuromuscular Disorders” (NMD PHARMA A/S, priority 2022, published 2026).

What was measured:
[1] = biological target: T1, CIC-1 ion channel (Rattus norvegicus, UniProt P35524); assay: Electrophysiological measurement of compound inhibition of CIC-1 in rat muscle (Gm in soleus fibres, three micro-electrodes); assay type: cell-based; details: Gm in individual fibres of whole rat soleus muscles, approx. 30° C., four increasing compound concentrations; read-out: Potency Range (EC50, inhibition of CIC-1 ion channel)
T1 construct: from tissue; host or cells: whole soleus muscle of 12-14 week old Wistar rats
T1 sequence (P35524 1-994): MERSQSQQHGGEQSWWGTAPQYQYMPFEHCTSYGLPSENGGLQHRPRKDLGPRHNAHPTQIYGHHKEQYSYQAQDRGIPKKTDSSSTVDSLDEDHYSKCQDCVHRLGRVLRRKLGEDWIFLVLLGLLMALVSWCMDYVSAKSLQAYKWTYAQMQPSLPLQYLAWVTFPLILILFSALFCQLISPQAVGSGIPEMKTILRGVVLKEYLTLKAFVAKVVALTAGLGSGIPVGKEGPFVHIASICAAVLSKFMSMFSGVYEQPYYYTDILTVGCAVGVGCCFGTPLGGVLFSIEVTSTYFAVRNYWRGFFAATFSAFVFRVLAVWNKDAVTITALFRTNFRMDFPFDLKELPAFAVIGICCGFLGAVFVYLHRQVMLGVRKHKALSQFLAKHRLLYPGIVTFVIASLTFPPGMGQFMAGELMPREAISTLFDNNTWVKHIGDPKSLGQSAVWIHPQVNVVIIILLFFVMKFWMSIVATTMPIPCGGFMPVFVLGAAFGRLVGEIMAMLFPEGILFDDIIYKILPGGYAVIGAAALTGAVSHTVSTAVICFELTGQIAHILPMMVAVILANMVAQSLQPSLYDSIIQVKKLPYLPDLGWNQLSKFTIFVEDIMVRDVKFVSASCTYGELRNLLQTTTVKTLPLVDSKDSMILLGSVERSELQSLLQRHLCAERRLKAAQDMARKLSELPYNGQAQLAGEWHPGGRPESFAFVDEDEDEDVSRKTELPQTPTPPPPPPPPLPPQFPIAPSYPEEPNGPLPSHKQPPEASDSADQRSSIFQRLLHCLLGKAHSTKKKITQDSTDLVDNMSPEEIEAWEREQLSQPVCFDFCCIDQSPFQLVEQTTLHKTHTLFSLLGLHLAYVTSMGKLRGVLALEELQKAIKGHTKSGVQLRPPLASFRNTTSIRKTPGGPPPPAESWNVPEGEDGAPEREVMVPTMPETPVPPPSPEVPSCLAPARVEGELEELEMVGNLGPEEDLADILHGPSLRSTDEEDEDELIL
Description: Apparent CIC-1 affinity was reported by the concentration of compound at which 50% of the compound's full inhibition of CIC-1 was observed (EC50) (see also WO2019/115777).
Experimentally, Gm was measured in individual fibres of whole rat soleus muscles using a three micro-electrodes technique described in this example and in full detail elsewhere (Riisager et al., Determination of cable parameters in skeletal muscle fibres during repetitive firing of action potentials. Journal of Physiology, 2014, 592, 4417-4429). Briefly, intact rat soleus muscles were dissected out from 12-14 week old Wistar rats and placed in an experimental chamber that was perfused with a standard Krebs Ringer solution containing 122 mM NaCl, 25 mM NaHCO3, 2.8 mM KCl, 1.2 mM KH2PO4, 1.2 mM MgSO4, 1.3 mM CaCl2, 5.0 mM D-glucose. During experiments, the solution was kept at approx. 30° C. and continuously equilibrated with a mixture of 95% O2 and 5% CO2, pH ~7.4. The experimental chamber was placed in Nikon upright microscope that was used to visualize individual muscle fibres and the three electrodes (glass pipettes filled with 2 M potassium citrate). For Gm measurements, the electrodes were inserted into the same fibre with known inter-electrode distances of 0.35-0.5 mm (V1-V2, X1) and 1.1-1.5 mm (V1-V3, X3). The membrane potential of the impaled muscle fibre was recorded by all electrodes. Two of the electrodes were furthermore used to inject 50 ms current pulses of −30 nA. […] The steady state voltage deflection at each distance was divided by the magnitude of current injected (−30 nA) and the resulting transfer resistances were plotted against inter-electrode distance and the data was fitted to a mono-exponential function from which Gm could be calculated using linear cable theory.
To establish a dose response relationship, Gm was first determined in 10 muscle fibres in the absence of compound and then at four increasing compound concentrations with Gm determinations in 5-10 fibres at each concentration. The average Gm values at each concentration were plotted against compound concentration and the data was fitted to sigmoidal function to obtain an EC5o value.

[2] = system: isolated rat soleus nerve-muscle preparations; assay: Measurement of force in an in vitro model: recovery of nerve-stimulated contractile force after tubocurarine; details: 40 min, after 40 mins of compound exposure, tubocurarine (115 nM) for 90 minutes, read-out: Point increase (%): percentage increase of initial force that was restored; for activation at 50 µM: 50 μM of test compound; for activation at 10 µM: 10 μM of test compound
Description: In one aspect, the invention relates to a method for recovery of force in muscles with neuromuscular dysfunction, said method comprising administering a compound or a composition as defined herein to a subject in need thereof. The term “recovery of force in muscles with neuromuscular dysfunction” as used herein refers to the ability of a compound to recover contractile force in nerve-stimulated healthy rat muscle after exposure to submaximal concentration (115 nM) of tubocurarine for 90 minutes.
Recovery of force is quantified as the percentage of the force prior to tubocurarine that is recovered after addition of the compound. In one embodiment, said recovery of force is >5%, such as >10%, such as >15%, such as >20%, such as >25%, such as >30%, such as >35%.
The current disclosure relates to compounds that inhibit CIC-1 ion channels and increase muscle excitability and thereby improve muscle function in clinical conditions where muscle activation is failing. Such conditions result in loss of contractile function of skeletal muscle, weakness and excessive fatigue. In this series of experiments the compounds were tested for their ability to restore contractile function of isolated rat muscle when the neuromuscular transmission had been compromised akin to neuromuscular disorders.
Experimentally, soleus muscles from 4-5 week old rats were isolated with the motor nerve remaining attached. The nerve-muscle preparations were mounted in experimental setups that enabled electrical stimulation of the motor nerve. Stimulation of the motor nerve led to activation of the muscle fibres and ensuing force production that was recorded. The nerve-muscle preparations were also in these experiments incubated in the standard Krebs Ringer (see example 15) and the solution was heated to 30° C. and continuously equilibrated with a mixture of 95% O2 and 5% CO2, pH ~7.4.
After mounting the nerve-muscle preparation in the experimental setup, the contractile function of the muscle was initially assessed under the control conditions. Sub-maximal concentration of tubocurarine (115 nM), an acetylcholine receptor antagonist, was then added to the experimental bath to impose partial inhibition of the ability of the motor nerve to activate the muscle fibres. The experimental condition mimics the failing neuromuscular transmission in a range of neuromuscular disorders. After addition of tubocurarine the contractile force declined over the next 90 minutes to 10-50% of the control force. The test compound was then added to obtain the required compound concentration in the bath and the contractile force recovered was measured. To quantify the ability of the compound to restore force the percentage of the initial force that was restored was determined after 40 mins of compound exposure and the point increase is reported in Tables 3 to 7.

| EC50 [1] | Structure (SMILES) | activation at 50 µM [2] | activation at 10 µM [2] |
| --- | --- | --- | --- |
| 10 to 20 µM | CCc1c(Cl)cc2c(c1C(=O)O)CCC2 [Compound A-13, 6-Chloro-5-ethyl-2,3-dihydro-1H-indene-4-carboxylic acid] | 26% | – |
| 10 to 20 µM | Cc1c(Cl)cc2c(c1C(=O)O)OCCC2 [Compound A-14, 6-Chloro-7-methyl-3,4-dihydro-2H-1-benzopyran-8-carboxylic acid] | 39% | – |
| 2 to 10 µM | O=C(O)c1c(Cl)c(F)cc2c1OCCCC2 [Compound A-56, 8-chloro-7-fluoro-2,3,4,5-tetrahydro-1-benzoxepine-9-carboxylic acid] | – | 31% |
| 0.2 to 2 µM | COc1c(Cl)cc2c(c1C(=O)O)OCCC2 [Compound A-69, 6-Chloro-7-methoxy-3,4-dihydro-2H-1-benzopyran-8-carboxylic acid] | – | 55% |
| 0.2 to 2 µM | O=C(O)c1c(F)c(Cl)cc2c1CCCS2 [Compound A-65, 7-chloro-6-fluoro-3,4-dihydro-2H-1-benzothiopyran-5-carboxylic acid] | – | 49% |
| 0.2 to 2 µM | O=C(O)c1c(F)c(Cl)cc2c1CCCO2 [Compound A-39, 7-Chloro-6-fluoro-3,4-dihydro-2H-1-benzopyran-5-carboxylic acid] | – | 59% |
| 2 to 10 µM | O=C(O)c1c(Cl)c(F)cc2c1OCCC2 [Compound A-37, 7-Chloro-6-fluoro-3,4-dihydro-2H-1-benzopyran-8-carboxylic acid] | 48% | – |
| 0.2 to 2 µM | O=C(O)c1c(F)c(Cl)cc2c1N(Cc1ccccc1)CCC2 [Compound A-71, 1-Benzyl-6-chloro-7-fluoro-1,2,3,4-tetrahydro-8-quinolinecarboxylic acid] | – | 23% |

The remaining lines, values behind:

| Structure (SMILES) | EC50 [1] | activation at 50 µM [2] | activation at 10 µM [2] |
| --- | --- | --- | --- |
| Cc1c(Cl)cc2c(c1C(=O)O)C1CCC2C1 (stereo not drawn) [Compound A-21, 5-chloro-4-methyltricyclo[6.2.1.0^2,7]undeca-2(7),3,5-triene-3-carboxylic acid] | 10 to 20 µM | 42% | – |
| Cc1c(F)cc2c(c1C(=O)O)CCCC2 [Compound A-52, 3-Fluoro-2-methyl-5,6,7,8-tetrahydronaphthalene-1-carboxylic acid] | 2 to 10 µM | – | 18% |
| COc1c(Cl)cc2c(c1C(=O)O)CCCC2 [Compound A-8, 3-Chloro-2-methoxy-5,6,7,8-tetrahydronaphthalene-1-carboxylic acid] | 0.2 to 2 µM | – | 50% |
| COc1c(Cl)cc2c(c1C(=O)O)CCCC2(F)F [Compound A-73, 3-Chloro-5,5-difluoro-2-methoxy-5,6,7,8-tetrahydro-1-naphthoic acid] | 0.2 to 2 µM | – | 23% |
| Cc1c(Cl)cc2c(c1C(=O)O)CCCC2 [Compound A-9, 3-Chloro-2-methyl-5,6,7,8-tetrahydronaphthalene-1-carboxylic acid] | 2 to 10 µM | – | 14% |
| Cc1cc2c(c(C(=O)O)c1Cl)C1CCC2C1 (stereo not drawn) [Compound A-20, 4-chloro-5-methyltricyclo[6.2.1.0^2,7]undeca-2,4,6-triene-3-carboxylic acid] | 2 to 10 µM | 38% | – |
| COc1c(Cl)cc2c(c1C(=O)O)C(F)(F)CCC2 [Compound A-59, 3-chloro-8,8-difluoro-2-methoxy-5,6,7,8-tetrahydronaphthalene-1-carboxylic acid] | 2 to 10 µM | – | 53% |
| COc1c(Cl)cc2c(c1C(=O)O)CCC2 [Compound A-6, 6-Chloro-5-methoxy-2,3-dihydro-1H-indene-4-carboxylic acid] | 0.2 to 2 µM | – | 42% |
| COc1c(Cl)cc2c(c1C(=O)O)CCCCC2 [Compound A-22, 3-Chloro-2-methoxy-6,7,8,9-tetrahydro-5H-benzo[7]annulene-1-carboxylic acid] | 0.2 to 2 µM | – | 33% |
| COc1c(Cl)cc2c(c1C(=O)O)OCC2 [Compound A-15, 5-Chloro-6-methoxy-2,3-dihydro-1-benzofuran-7-carboxylic acid] | 2 to 10 µM | 40% | – |
| COc1c(Cl)c(F)c2c(c1C(=O)O)CCCC2 [Compound A-19, 3-Chloro-4-fluoro-2-methoxy-5,6,7,8-tetrahydronaphthalene-1-carboxylic acid] | 0.2 to 2 µM | 41% | – |
| Cc1cc2c(c(C(=O)O)c1Cl)CCCC2 [Compound A-28, 2-chloro-3-methyl-5,6,7,8-tetrahydronaphthalene-1-carboxylic acid] | 2 to 10 µM | 39% | – |
| Cc1c(Cl)cc2c(c1C(=O)O)CCCCC2 [Compound A-33, 3-Chloro-2-methyl-6,7,8,9-tetrahydro-5H-benzo[7]annulene-1-carboxylic acid] | 2 to 10 µM | – | 17% |
| O=C(O)c1cc(Cl)cc2c1CCCC2 [Compound A-3, 3-chloro-5,6,7,8-tetrahydronaphthalene-1-carboxylic acid] | 2 to 10 µM | – | 38% |
| CC1(C)CCc2cc(Cl)cc(C(=O)O)c2O1 [Compound A-53, 6-Chloro-2,2-dimethyl-3,4-dihydro-2H-1-benzopyran-8-carboxylic acid] | 0.2 to 2 µM | – | 43% |
| O=C(O)c1cc(Cl)c(F)c2c1CCCC2 [Compound A-17, 3-Chloro-4-fluoro-5,6,7,8-tetrahydronaphthalene-1-carboxylic acid] | 10 to 20 µM | 41% | – |
